Here are results for 7 compounds from US11072634B2, “Inhibitors of transglutaminases” (Zedira GmbH, priority 2016, dated 2021).

Assay [1] addresses T1, recombinant human factor XIII A-subunit (rhFXIII-A, plasma transglutaminase) (Homo sapiens, UniProt P00488).
T1 construct: His6; purchased Zedira 1027 (so in the source); T027)
T1 sequence (P00488 39-732 limits assumed): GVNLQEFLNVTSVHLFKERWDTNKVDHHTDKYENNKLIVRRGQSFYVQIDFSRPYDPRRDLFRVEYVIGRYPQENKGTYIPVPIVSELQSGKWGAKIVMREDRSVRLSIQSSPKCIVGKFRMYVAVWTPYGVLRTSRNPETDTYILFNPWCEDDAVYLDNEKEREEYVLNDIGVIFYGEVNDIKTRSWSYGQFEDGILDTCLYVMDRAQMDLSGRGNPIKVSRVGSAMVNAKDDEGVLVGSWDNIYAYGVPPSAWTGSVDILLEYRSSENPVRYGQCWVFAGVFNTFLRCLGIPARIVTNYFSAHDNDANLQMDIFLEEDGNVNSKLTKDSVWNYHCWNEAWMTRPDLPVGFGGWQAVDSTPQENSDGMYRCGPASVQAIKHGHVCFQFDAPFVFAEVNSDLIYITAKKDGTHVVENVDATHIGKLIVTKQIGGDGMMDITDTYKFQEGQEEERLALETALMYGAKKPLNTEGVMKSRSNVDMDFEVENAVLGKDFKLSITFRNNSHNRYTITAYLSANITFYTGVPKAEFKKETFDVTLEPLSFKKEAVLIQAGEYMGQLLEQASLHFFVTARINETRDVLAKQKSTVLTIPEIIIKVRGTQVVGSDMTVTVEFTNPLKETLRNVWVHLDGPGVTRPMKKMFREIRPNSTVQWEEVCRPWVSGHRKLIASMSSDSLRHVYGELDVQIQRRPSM
Nature of the assay: Inhibition of rec. human coagulation factor XIII (fluorescence, Abz-NE(CAD-DNP)EQVSPLILLK-OH). It is filed as biochemical. The conditions noted are these: Table 3, FXIII inhibitors; read-out: IC50 FXIII. The procedure:
Method for Inhibition Studies of Rec. Human Coagulation Factor XIII (Plasma Transglutaminase, rhFXIII-A)
(§1) 50 μg lyophilized His-tagged recombinant human factor XIII A-subunit (His6-rhFXIII, Zedira product 1027) is reconstituted in H2O (volume depends on original volume before lyophilization) resulting in a buffer containing 20 mM Tris-HCl, 150 mM NaCl, 1 mM EDTA, 1 mM DTT, 189 mg/ml maltodextrin, pH=7.5. The rhFXIII stock solution is diluted in buffer (50 mM Tris-HCl, 7.5 mM CaCl2, 150 mM NaCl, pH=7.4) to give a working solution of 59 U/ml (based on the amine-incorporation activity measured using transglutaminase activity assay #1036 (Zedira GmbH), described below).
(§2) A 10 mM inhibitor stock solution is prepared in DMSO, and from this a serial 1:2-fold dilution series is prepared also in DMSO. Each of the initial dilutions is subsequently diluted 1:50-fold with buffer (50 mM Tris-HCl, 7.5 mM CaCl2, 150 mM NaCl, pH=7.4) to yield the final working dilutions containing 2% (v/v) DMSO.
(§3) 15 μl of inhibitor working dilution are added per well of a 96 well microtiter plate. As control, 15 μl of a 2% (v/v) DMSO solution prepared using the buffer mentioned above are added per well.
(§4) 480 μl of His6-rhFXIII working solution and 120 μl human alpha thrombin (0.5 NIH units/μl) are added to 10.8 ml assay buffer (50 mM Tris-HCl, 7.5 mM CaCl2, 150 mM NaCl, 5 mM DTT, 13.4 mM glycine methylester, 50 μM Abz-NE(CAD-DNP)EQVSPLILLK-OH, (Zedira product A101; patent No.: EP 1781807B1), pH=7.4). From this master-mix solution, 285 μl are added per well containing the inhibitor. Increase in fluorescence is measured using […] and λem=418 nm at 37° C. for 35 min. A slope of the increase in fluorescence between 20 and 30 min is calculated for determination of the IC50 value (inhibitor concentration at which 50% of the initial FXIII activity is blocked).
(§5) Analysis of enzymatic activity is performed by calculation of the slope of an increase in fluorescence intensity. IC50 values are calculated by plotting the enzymatic activity (as percentage from control containing 2% DMSO instead of inhibitor) against the inhibitor concentration. IC50 is defined as the inhibitor concentration blocking 50%) of initial enzyme activity.

The target of another assay is T2, TG2 (Homo sapiens, UniProt P21980).
T2 sequence (P21980 1-687): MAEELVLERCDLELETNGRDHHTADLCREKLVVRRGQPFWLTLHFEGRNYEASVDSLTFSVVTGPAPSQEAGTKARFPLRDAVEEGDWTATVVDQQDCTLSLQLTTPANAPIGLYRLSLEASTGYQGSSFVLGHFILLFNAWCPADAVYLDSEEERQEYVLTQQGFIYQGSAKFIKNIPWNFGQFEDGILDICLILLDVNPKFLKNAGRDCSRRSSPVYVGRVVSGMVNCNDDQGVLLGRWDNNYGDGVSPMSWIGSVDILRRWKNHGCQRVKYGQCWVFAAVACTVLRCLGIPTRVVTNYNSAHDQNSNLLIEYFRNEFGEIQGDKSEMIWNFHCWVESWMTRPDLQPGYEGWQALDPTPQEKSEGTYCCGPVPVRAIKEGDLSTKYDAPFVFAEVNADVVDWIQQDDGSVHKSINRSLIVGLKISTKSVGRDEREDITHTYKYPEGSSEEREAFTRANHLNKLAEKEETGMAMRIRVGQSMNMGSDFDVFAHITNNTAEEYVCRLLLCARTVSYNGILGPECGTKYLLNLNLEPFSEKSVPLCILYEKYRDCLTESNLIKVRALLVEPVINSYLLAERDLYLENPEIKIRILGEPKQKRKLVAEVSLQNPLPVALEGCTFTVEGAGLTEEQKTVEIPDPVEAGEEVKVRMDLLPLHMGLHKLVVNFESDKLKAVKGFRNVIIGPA
Nature of the assay: FXIII assay format using TG2 instead of FXIII (selectivity of FXIIIa blockers). It is filed as biochemical. The following applies: Table 3, selectivity with respect to TG2; read-out: IC50 TG2. The procedure:
as §1, §2, §3, §4
This assay was also used to determine selectivity of inhibitors preferentially blocking FXIIIa by using TG2 instead of FXIII.
as §5

*1 amine or outer side, *2 acyl side, *3 side chain or, on linkers, in order; H or OH if unused. Where a SMILES comes first, the peptide text is derived from it. [ ]: non-standard residue; d: D form. The star is where a group is joined. Nle(5,6-dioxo,6-NHMe) = CNC(=O)C(=O)CC[C@H](N)C(=O)O; X4 = O=C(CC[C@H](N[*:1])C(=O)[*:2])C(=O)NC1CC1; Isonicotinoyl(3-COOH) = O=C(O)c1cnccc1C(=O)*; X6 = CCNC(=O)C(=O)CC[C@H](N[*:1])C(=O)[*:2]; d(aIle) = CC[C@H](C)[C@@H](N)C(=O)O; Pro(4-oxo) = O=C1CN[C@H](C(=O)O)C1; Chg = N[C@H](C(=O)O)C1CCCCC1; Tle = CC(C)(C)[C@H](N)C(=O)O; Nle = CCCC[C@H](N)C(=O)O; X3 = Cc1nc(C(=O)*)cs1

As a reminder, the IC50 is the concentration that gives 50% inhibition.

For `CC[C@H](C)[C@@H](NC(=O)[C@H](CC(C)C)NC(=O)[C@H](CCC(=O)C(=O)NC1CC1)NC(=O)c1csc(C)n1)C(=O)N[C@@H](CC(C)C)C(=O)N1CCC[C@H]1C(=O)N[C@@H](Cc1c[nH]c2ccccc12)C(=O)N1CCC[C@H]1C(N)=O` [Compound E33, (S)—N1-((S)-1-((2R,3S)-1-((S)-1-((S)-2-((S)-1-((S)-2-carbamoylpyrrolidin-1-yl)-3-(1H-indol-3-yl)-1-oxopropan-2-ylcarbamoyl)pyrrolidin-1-yl)-4-methyl-1-oxopentan-2-ylamino)-3-methyl-1-oxopentan-2-ylamino)-4-methyl-1-oxopentan-2-yl)-N6-cyclopropyl-2-(2-methylthiazole-4-carboxamido)-5-oxohexanediamide] (X3-[X4]L[d(aIle)]LPWP-NH2), the half-inhibitory concentration (IC50) in assay [1] stood at 16000 nM; at TG2, 11500 nM.

On to `CCCC[C@H](NC(=O)[C@H](CCC(=O)C(=O)NC)NC(=O)CNC(C)=O)C(=O)N[C@H](C(=O)N[C@@H](CC(C)C)C(=O)N1CCC[C@H]1C(=O)N[C@@H](Cc1c[nH]c2ccccc12)C(N)=O)[C@@H](C)CC` [Compound E34, (S)-2-(2-acetamidoacetamido)-N1-((S)-1-((2S,3S)-1-((S)-1-((S)-2-((S)-1-amino-3-(1H-indol-3-yl)-1-oxopropan-2-ylcarbamoyl)pyrrolidin-1-yl)-4-methyl-1-oxopentan-2-ylamino)-3-methyl-1-oxopentan-2-ylamino)-1-oxohexan-2-yl)-N6-methyl-5-oxohexanediamide] (Ac-G[Nle(5,6-dioxo,6-NHMe)][Nle]ILPW-NH2), for which the IC50 amounted to 2450 nM in assay [1] and 200 nM at TG2.

As to `Cc1nc(C(=O)N[C@@H](CCC(=O)C(=O)NC2CC2)C(=O)N[C@H](C(=O)N2CC(=O)C[C@H]2C(=O)N[C@H](C(=O)N[C@H](C(N)=O)C2CCCCC2)C2CCCCC2)C(C)(C)C)cs1` [Compound E32, (S)—N1-((S)-1-((S)-2-((S)-2-((S)-2-amino-1-cyclohexyl-2-oxoethylamino)-1-cyclohexyl-2-oxoethylcarbamoyl)-4-oxopyrrolidin-1-yl)-3,3-dimethyl-1-oxobutan-2-yl)-N6-cyclopropyl-2-(2-methylthiazole-4-carboxamido)-5-oxohexanediamide] (X3-[X4][Tle][Pro(4-oxo)][Chg][Chg]-NH2), the IC50 in assay [1] came to 2650 nM; on TG2, 1000 nM.

`CCCC[C@H](NC(=O)[C@H](CCC(=O)C(=O)NC)NC(=O)CNC(=O)[C@@H]1CCCN1C(=O)CNC(C)=O)C(=O)N[C@H](C(=O)N[C@@H](CC(C)C)C(=O)N1CCC[C@H]1C(=O)N[C@@H](Cc1c[nH]c2ccccc12)C(N)=O)[C@@H](C)CC` [Compound E36, (S)-2-(2-((S)-1-(2-acetamidoacetyl)pyrrolidine-2-carboxamido)acetamido)-N1-((S)-1-((2S,3S)-1-((S)-1-((S)-2-((S)-1-amino-3-(1H-indol-3-yl)-1-oxopropan-2-ylcarbamoyl)pyrrolidin-1-yl)-4-methyl-1-oxopentan-2-ylamino)-3-methyl-1-oxopentan-2-ylamino)-1-oxohexan-2-yl)-N6-methyl-5-oxohexanediamide] (Ac-GPG[Nle(5,6-dioxo,6-NHMe)][Nle]ILPW-NH2): the IC50 in assay [1] was found to be 3100 nM; on TG2, 800 nM.

For `CCCC[C@H](NC(=O)[C@H](CCC(=O)C(=O)NC)NC(=O)CNC(=O)[C@@H]1CCCN1C(=O)CNC(=O)[C@H](CC(C)C)NC(C)=O)C(=O)N[C@H](C(=O)N[C@@H](CC(C)C)C(=O)N1CCC[C@H]1C(=O)N[C@@H](Cc1c[nH]c2ccccc12)C(N)=O)[C@@H](C)CC` [Compound E37, (S)-2-(2-((S)-1-(2-((S)-2-acetamido-4-methylpentanamido)acetyl)pyrrolidine-2-carboxamido)acetamido)-N1-((S)-1-((2S,3S)-1-((S)-1-((S)-2-((S)-1-amino-3-(1H-indol-3-yl)-1-oxopropan-2-ylcarbamoyl)pyrrolidin-1-yl)-4-methyl-1-oxopentan-2-ylamino)-3-methyl-1-oxopentan-2-ylamino)-1-oxohexan-2-yl)-N6-methyl-5-oxohexanediamide] (Ac-LGPG[Nle(5,6-dioxo,6-NHMe)][Nle]ILPW-NH2), the concentration for half-maximal inhibition (IC50) was determined as 2500 nM in assay [1] and 390 nM at TG2.

Consider `CCCC[C@H](NC(=O)[C@H](CCC(=O)C(=O)NC)NC(=O)CNC(=O)[C@@H]1CCCN1C(C)=O)C(=O)N[C@H](C(=O)N[C@@H](CC(C)C)C(=O)N1CCC[C@H]1C(=O)N[C@@H](Cc1c[nH]c2ccccc12)C(N)=O)[C@@H](C)CC` [Compound E35, (S)-2-(2-((S)-1-acetylpyrrolidine-2-carboxamido)acetamido)-N1-((S)-1-((2S,3S)-1-((S)-1-((S)-2-((S)-1-amino-3-(1H-indol-3-yl)-1-oxopropan-2-ylcarbamoyl)pyrrolidin-1-yl)-4-methyl-1-oxopentan-2-ylamino)-3-methyl-1-oxopentan-2-ylamino)-1-oxohexan-2-yl)-N6-methyl-5-oxohexanediamide] (Ac-PG[Nle(5,6-dioxo,6-NHMe)][Nle]ILPW-NH2), for which the IC50 amounted to 1950 nM in assay [1] and 525 nM at TG2.

In the case of `CCNC(=O)C(=O)CC[C@H](NC(=O)c1ccncc1C(=O)O)C(=O)N[C@H](C(=O)N1CC(=O)C[C@H]1C(=O)N[C@H](C(=O)N[C@H](C(N)=O)C1CCCCC1)C1CCCCC1)C(C)(C)C` [Compound E26, 4-((S)-1-((S)-1-((S)-2-((S)-2-((S)-2-amino-1-cyclohexyl-2-oxoethylamino)-1-cyclohexyl-2-oxoethylcarbamoyl)-4-oxopyrrolidin-1-yl)-3,3-dimethyl-1-oxobutan-2-ylamino)-6-(ethylamino)-1,5,6-trioxohexan-2-ylcarbamoyl)nicotinic acid] ({Isonicotinoyl(3-COOH)}-[X6][Tle][Pro(4-oxo)][Chg][Chg]-NH2), the IC50 in assay [1] came out at 320 nM; at TG2, 10800 nM.
